# Results published in ChEMBL document CHEMBL3351476, “The discovery of I-BET726 (GSK1324726A), a potent tetrahydroquinoline ApoA1 up-regulator and selective BET bromodomain inhibitor” (J Med Chem, 2014).
# Active and inactive are the calls of the source. The rule behind the calls is not given here.
# Legend:
# Cytochrome P450 2C9 = Cytochrome P450 2C9 (Homo sapiens, UniProt P11712); experiment: Inhibition of CYP2C9 (unknown origin) expressed in Escherichia coli bactosomes using 7-methoxy-4-trifluoromethylcoumarin-3-acetic acid as substrate after 10 mins by fluorescence assay; type: ADME
# Sequence of Cytochrome P450 2C9 (P11712 whole entry, the tested form may be a part): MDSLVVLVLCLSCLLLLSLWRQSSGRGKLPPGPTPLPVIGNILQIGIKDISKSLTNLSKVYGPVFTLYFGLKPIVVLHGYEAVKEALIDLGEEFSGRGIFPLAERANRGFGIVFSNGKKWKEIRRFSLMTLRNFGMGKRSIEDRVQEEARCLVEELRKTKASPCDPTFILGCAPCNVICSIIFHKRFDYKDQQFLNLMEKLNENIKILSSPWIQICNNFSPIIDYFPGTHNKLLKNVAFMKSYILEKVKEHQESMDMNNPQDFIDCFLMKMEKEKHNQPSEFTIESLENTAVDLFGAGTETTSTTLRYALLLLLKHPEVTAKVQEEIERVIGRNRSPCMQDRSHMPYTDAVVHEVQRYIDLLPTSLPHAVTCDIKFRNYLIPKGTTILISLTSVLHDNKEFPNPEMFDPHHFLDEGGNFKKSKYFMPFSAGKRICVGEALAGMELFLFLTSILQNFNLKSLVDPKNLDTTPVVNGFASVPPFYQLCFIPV
# [1] = target: Bromodomain-containing protein 4 (Homo sapiens, UniProt O60885); experiment: Displacement of biotinylated tetra-acetylated histone H4 from His6-tagged BRD4 (1 to 477 aa) (unknown origin) after 1 hr by TR-FRET assay
# Hepatocyte [2] = experiment: Clearance in rat hepatocytes assessed per gram of tissue at 1 uM by LC-MS/MS analysis; type: ADME, cell-based
# [3] = Solubility of the compound in fasted state simulated intestinal fluid at 125 ug/ml after 16 hrs by HPLC analysis; type: ADME; conditions: for solubility at 16 h: fasted state simulated intestinal fluid
# Cytochrome P450 3A4 [4] = target: T1, Cytochrome P450 3A4 (Homo sapiens, UniProt P08684); experiment: Inhibition of human recombinant CYP3A4 expressed in Escherichia coli bactosomes using diethoxyfluorescein as substrate after 10 mins by fluorescence assay; type: ADME
# T1 sequence (P08684 whole entry): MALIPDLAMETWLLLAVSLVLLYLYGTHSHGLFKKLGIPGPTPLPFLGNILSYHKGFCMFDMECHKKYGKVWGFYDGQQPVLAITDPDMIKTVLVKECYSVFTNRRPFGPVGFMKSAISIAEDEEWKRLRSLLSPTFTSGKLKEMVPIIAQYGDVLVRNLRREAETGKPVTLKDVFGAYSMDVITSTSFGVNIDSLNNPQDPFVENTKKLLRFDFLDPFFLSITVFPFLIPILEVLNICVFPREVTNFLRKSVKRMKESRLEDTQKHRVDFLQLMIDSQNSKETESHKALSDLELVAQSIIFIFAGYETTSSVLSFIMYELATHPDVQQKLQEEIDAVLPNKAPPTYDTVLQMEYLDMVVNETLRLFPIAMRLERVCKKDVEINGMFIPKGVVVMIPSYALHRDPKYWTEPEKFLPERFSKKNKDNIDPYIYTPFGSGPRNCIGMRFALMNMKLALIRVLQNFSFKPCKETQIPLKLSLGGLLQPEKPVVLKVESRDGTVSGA
# HepG2 [5] = experiment: Upregulation of ApoA1 in human HepG2 cells after 16 hrs by luciferase reporter assay relative to control; type: functional
# [6] = Clearance in dog hepatocytes assessed per gram of tissue at 1 uM by LC-MS/MS analysis; type: ADME, cell-based, Canis lupus familiaris, Hepatocyte
# Cytochrome P450 2D6 = Cytochrome P450 2D6 (Homo sapiens, UniProt P10635); experiment: Inhibition of recombinant human CYP2D6 expressed in Escherichia coli bactosomes using 4-methylaminomethyl-7-methoyxycoumarin as substrate after 10 mins by fluorescence assay; type: ADME
# Sequence of Cytochrome P450 2D6 (P10635 whole entry): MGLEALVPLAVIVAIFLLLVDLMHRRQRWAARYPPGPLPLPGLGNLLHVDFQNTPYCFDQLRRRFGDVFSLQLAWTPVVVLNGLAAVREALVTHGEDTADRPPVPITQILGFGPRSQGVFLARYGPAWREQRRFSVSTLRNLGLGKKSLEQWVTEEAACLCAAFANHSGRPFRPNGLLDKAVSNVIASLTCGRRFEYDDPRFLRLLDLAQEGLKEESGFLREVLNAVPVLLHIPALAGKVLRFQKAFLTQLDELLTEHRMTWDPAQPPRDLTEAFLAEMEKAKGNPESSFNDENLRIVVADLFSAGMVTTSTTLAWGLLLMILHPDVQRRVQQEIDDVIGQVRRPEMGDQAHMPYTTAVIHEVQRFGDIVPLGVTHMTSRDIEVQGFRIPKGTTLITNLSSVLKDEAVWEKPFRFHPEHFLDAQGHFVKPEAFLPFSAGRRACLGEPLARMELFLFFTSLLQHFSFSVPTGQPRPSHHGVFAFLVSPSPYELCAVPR
# [7] = Clearance in Cynomolgus monkey hepatocytes assessed per gram of tissue at 1 uM by LC-MS/MS analysis; type: ADME, cell-based, Macaca fascicularis, Hepatocyte
# Cytochrome P450 1A2 = Cytochrome P450 1A2 (Homo sapiens, UniProt P05177); experiment: Inhibition of CYP1A2 (unknown origin) expressed in Escherichia coli bactosomes using ethoxyresorufin as substrate after 10 mins by fluorescence assay; type: ADME
# Sequence of Cytochrome P450 1A2 (P05177 whole entry): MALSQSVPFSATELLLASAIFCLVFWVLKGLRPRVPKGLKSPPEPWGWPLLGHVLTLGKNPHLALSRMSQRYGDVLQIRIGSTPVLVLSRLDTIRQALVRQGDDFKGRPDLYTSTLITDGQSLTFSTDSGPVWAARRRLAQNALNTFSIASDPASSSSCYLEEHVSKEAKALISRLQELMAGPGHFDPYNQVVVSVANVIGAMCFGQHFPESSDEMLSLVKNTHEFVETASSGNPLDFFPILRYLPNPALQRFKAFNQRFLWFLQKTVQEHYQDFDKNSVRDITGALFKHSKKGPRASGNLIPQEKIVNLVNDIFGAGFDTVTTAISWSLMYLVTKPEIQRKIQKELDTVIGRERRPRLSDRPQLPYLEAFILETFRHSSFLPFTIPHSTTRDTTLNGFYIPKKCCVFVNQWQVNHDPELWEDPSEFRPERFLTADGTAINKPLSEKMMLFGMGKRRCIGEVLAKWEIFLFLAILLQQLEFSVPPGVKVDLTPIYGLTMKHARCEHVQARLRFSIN
# Blood = experiment: Inhibition of LPS-induced IL6 production in human whole blood after 24 hrs by immunoassay; type: functional, tissue-based
# [8] = target: Bromodomain-containing protein 3 (Homo sapiens, UniProt Q15059); experiment: Displacement of biotinylated tetra-acetylated histone H4 from His6-tagged BRD3 (1 to 475 aa) (unknown origin) after 1 hr by TR-FRET assay
# Sequence of Bromodomain-containing protein 3 (Q15059 whole entry, the tested form may be a part): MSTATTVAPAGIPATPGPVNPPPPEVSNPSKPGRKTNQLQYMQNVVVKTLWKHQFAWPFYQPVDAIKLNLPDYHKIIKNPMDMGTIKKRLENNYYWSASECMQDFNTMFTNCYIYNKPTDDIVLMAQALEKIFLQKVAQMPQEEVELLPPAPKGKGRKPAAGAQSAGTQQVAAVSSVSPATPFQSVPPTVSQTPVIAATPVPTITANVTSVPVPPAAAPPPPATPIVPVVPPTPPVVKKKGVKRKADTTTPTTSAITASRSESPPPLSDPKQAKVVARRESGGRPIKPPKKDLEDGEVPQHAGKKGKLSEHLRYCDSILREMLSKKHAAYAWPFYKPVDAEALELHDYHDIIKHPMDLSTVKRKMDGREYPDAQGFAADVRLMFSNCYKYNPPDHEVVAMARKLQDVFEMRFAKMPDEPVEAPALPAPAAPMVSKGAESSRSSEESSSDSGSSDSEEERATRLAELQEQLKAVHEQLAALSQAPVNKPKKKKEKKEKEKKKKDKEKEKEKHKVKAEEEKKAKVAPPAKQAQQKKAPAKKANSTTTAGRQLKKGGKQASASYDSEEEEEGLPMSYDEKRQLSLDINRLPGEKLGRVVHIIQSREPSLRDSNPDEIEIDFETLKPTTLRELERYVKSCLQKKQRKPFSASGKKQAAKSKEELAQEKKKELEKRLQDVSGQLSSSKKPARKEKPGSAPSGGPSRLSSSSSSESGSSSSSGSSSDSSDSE
# PBMC = experiment: Inhibition of LPS-induced IL6 production in human PBMC after 18 to 24 hrs by immunoassay; type: functional, cell-based
# [9] = target: Bromodomain-containing protein 2 (Homo sapiens, UniProt P25440); experiment: Displacement of biotinylated tetra-acetylated histone H4 from His6-tagged BRD2 (1 to 473 aa) (unknown origin) after 1 hr by TR-FRET assay
# Sequence of Bromodomain-containing protein 2 (P25440 whole entry, the tested form may be a part): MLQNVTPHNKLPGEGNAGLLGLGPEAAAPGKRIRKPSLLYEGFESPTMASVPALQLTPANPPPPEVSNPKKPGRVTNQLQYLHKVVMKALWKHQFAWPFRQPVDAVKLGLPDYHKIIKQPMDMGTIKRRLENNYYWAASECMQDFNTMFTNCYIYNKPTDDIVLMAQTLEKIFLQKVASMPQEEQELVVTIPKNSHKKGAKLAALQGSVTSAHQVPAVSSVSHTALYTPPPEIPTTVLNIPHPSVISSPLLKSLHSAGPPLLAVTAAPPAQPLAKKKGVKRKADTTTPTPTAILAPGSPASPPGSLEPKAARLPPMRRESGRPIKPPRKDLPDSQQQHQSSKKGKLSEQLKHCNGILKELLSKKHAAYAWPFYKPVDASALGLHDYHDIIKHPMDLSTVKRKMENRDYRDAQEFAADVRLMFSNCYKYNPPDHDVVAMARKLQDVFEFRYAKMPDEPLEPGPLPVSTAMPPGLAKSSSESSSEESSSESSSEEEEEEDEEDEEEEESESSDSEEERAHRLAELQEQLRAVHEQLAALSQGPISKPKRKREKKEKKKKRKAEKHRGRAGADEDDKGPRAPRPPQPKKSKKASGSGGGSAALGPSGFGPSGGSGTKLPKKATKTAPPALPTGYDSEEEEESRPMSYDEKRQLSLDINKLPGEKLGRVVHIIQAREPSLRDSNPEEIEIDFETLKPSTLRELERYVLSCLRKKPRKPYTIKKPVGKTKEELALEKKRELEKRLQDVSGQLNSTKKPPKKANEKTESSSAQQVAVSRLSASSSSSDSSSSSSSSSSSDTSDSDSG
# Cytochrome P450 3A4 [10] = target: T1, Cytochrome P450 3A4; experiment: Inhibition of human recombinant CYP3A4 expressed in Escherichia coli bactosomes using 7-benzloxyquinolone as substrate after 10 mins by fluorescence assay; type: ADME
# Cytochrome P450 2C19 = Cytochrome P450 2C19 (Homo sapiens, UniProt P33261); experiment: Inhibition of CYP2C19 (unknown origin) expressed in Escherichia coli bactosomes using 3-butyryl-7-methoxycoumarin as substrate after 10 mins by fluorescence assay; type: ADME
# Sequence of Cytochrome P450 2C19 (P33261 whole entry): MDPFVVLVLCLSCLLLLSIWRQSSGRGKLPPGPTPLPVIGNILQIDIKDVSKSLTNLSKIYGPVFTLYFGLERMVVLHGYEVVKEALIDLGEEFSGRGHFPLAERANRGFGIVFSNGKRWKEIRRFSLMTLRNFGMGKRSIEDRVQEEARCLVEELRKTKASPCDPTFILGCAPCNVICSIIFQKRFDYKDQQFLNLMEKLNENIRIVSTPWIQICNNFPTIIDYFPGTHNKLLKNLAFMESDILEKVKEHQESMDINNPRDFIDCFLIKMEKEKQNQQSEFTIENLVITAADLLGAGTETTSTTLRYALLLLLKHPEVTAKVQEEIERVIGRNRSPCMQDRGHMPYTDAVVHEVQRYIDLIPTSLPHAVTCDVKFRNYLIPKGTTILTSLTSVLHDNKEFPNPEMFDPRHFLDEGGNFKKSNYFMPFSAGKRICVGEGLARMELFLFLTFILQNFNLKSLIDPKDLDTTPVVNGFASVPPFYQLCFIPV
# Hepatocyte [11] = experiment: Clearance in human hepatocytes assessed per gram of tissue at 1 uM by LC-MS/MS analysis; type: ADME, cell-based
# Mus musculus [12] = experiment: Antiinflammatory activity in Balb/c mouse assessed as inhibition of LPS-induced PAI-1 mRNA expression in liver at 3 mg/kg, po 2 hrs before LPS challenge measured after 2 hrs; type: functional, organism-based; set-up: dose 3 mg/kg
# Mus musculus [13] = experiment: Antiinflammatory activity in Balb/c mouse assessed as inhibition of LPS-induced PAI-1 mRNA expression in liver administered orally 2 hrs before LPS challenge measured after 2 hrs; type: functional, organism-based
# HepG2 [14] = experiment: Upregulation of ApoA1 in human HepG2 cells at 10 uM after 16 hrs by luciferase reporter assay relative to control; type: functional
# HepG2 [15] = experiment: Upregulation of ApoA1 in human HepG2 cells at 1.25 uM after 16 hrs by luciferase reporter assay relative to control; type: functional
IC50 [1] [nM],IC50 [8] [nM],IC50 [9] [nM],Structure (SMILES),pEC170 (HepG2 [5]),also measured
398,316,501,CC(=O)N1c2ccc(-c3ccc(CN4CCCCC4)cc3)cc2[C@H](Nc2ccccc2)C[C@@H]1C,8,"IC50 (Cytochrome P450 2C9): 14000 nM; CLH (Hepatocyte [2]): 0.8 mL/min/g; solubility ([3]; simulated gi fluid, 16 h): 125 µg/mL; IC50 (Cytochrome P450 3A4 [4]): 2000 nM; CLH [6]: 0.9 mL/min/g; IC50 (Cytochrome P450 2D6): 8000 nM; CLH [7]: 6 mL/min/g; IC50 (Cytochrome P450 1A2): > 33000 nM; IC50 (Blood): 63.1 nM; IC50 (PBMC): 3.16 nM; IC50 (Cytochrome P450 3A4 [10]): 10000 nM; IC50 (Cytochrome P450 2C19): 20000 nM; CLH (Hepatocyte [11]): 1.8 mL/min/g"
–,–,–,CC(=O)N1c2ccc(-c3ccc(C(=O)O)cc3)cc2[C@H](Nc2ccc(Cl)cc2)C[C@@H]1C,–,inhibition (Mus musculus [12]): Active; inhibition (Mus musculus [13]): Dose-dependent effect
631,316,501,CC(=O)N1c2ccc(-c3ccc(C(=O)O)cc3)cc2[C@H](Nc2ccc(C)cc2)C[C@@H]1C (racemic),7.8,–
501,631,794,CC(=O)N1c2ccc(-c3ccc(CN4CCOCC4)cc3)cc2[C@H](Nc2ccccc2)C[C@@H]1C (racemic),7.6,solubility at 16 h [3]: 107 µg/mL
794,501,794,CC(=O)N1c2ccc(-c3cccc(C(=O)O)c3)cc2[C@H](Nc2ccc(Cl)cc2)C[C@@H]1C (racemic),7.4,–
–,–,–,CC(=O)N1c2ccccc2C(Nc2ccccc2)CC1C (mixture of isomers),–,fold change (FC) (HepG2 [14]): 2.3; fold change (FC) (HepG2 [15]): 1.7
3980,2510,3980,CC(=O)N1c2ccc(-c3ccccc3C)cc2[C@H](Nc2ccc(Cl)cc2)C[C@@H]1C (racemic),5.6,–
631,501,1260,COC(=O)c1ccc(-c2ccc3c(c2)[C@H](Nc2ccc(S(C)(=O)=O)cc2)C[C@H](C)N3C(C)=O)cc1 (racemic),6,–
–,–,–,CC(=O)N1c2ccc(-c3ccc(CN4CCCCC4)cc3)cc2[C@H](Nc2ccccc2)C[C@@H]1C (racemic),7.9,solubility at 16 h [3]: 111 µg/mL
794,501,794,CC(=O)N1c2ccc(-c3ccccc3)cc2[C@H](Nc2ccccc2)C[C@@H]1C (racemic),7,–
631,631,1260,COc1ccc(-c2ccc3c(c2)[C@H](Nc2ccccc2)C[C@H](C)N3C(C)=O)cc1 (racemic),7.2,solubility at 16 h [3]: 92 µg/mL
25100,25100,25100,CC(=O)N1c2ccc(-c3ccc(CN4CCCCC4)cc3)cc2[C@@H](Nc2ccccc2)C[C@H]1C,5.9,–
1000,1260,1000,CC(=O)N1c2ccc(-c3ccc(CN4CCCCC4)cc3)cc2[C@H](Nc2ccc(Cl)cc2)C[C@@H]1C (racemic),8,–
631,501,501,COC(=O)c1ccc(-c2ccc3c(c2)[C@H](Nc2ccc(C(C)(C)C)cc2)C[C@H](C)N3C(C)=O)cc1 (racemic),6.9,–
–,–,–,CCCCC(=O)N1c2ccccc2C(Nc2ccccc2)CC1C (mixture of isomers),–,fold change (FC) (HepG2 [14]): <=1.1
1260,1000,1260,COC(=O)c1ccc(-c2ccc3c(c2)[C@H](Nc2ccccc2)C[C@H](C)N3C(C)=O)cc1 (racemic),7.4,solubility at 16 h [3]: 69 µg/mL
501,501,631,COc1cccc(N[C@@H]2C[C@H](C)N(C(C)=O)c3ccc(-c4ccc(C(=O)O)cc4)cc32)c1 (racemic),7.3,–
–,–,–,CC(=O)N1c2ccccc2[C@@H](Nc2ccc(C)cc2)C[C@@H]1C (racemic),–,fold change (FC) (HepG2 [15]): 1.1
–,–,–,CCCC(=O)N1c2ccccc2C(Nc2ccccc2)CC1C (mixture of isomers),–,fold change (FC) (HepG2 [14]): <=1.1

IC50 [1] [nM],IC50 [8] [nM],IC50 [9] [nM],Structure (SMILES),pEC170 (HepG2 [5]),also measured
501,501,794,CC(=O)N1c2ccc(-c3ccc(CO)cc3)cc2[C@H](Nc2ccccc2)C[C@@H]1C (racemic),7.5,solubility at 16 h [3]: 73 µg/mL
–,–,–,CC(=O)N1c2ccccc2[C@@H](Nc2ccc(C)cc2)C[C@H]1C (racemic),–,fold change (FC) (HepG2 [15]): 1.7
–,–,–,CCC(=O)N1c2ccccc2C(Nc2ccccc2)CC1C (mixture of isomers),–,fold change (FC) (HepG2 [14]): 1.4; fold change (FC) (HepG2 [15]): 1.6
1000,794,1260,CC(=O)N1c2ccc(-c3ccc(C#N)cc3)cc2[C@H](Nc2cccc(F)c2)C[C@@H]1C (racemic),6.8,–
631,794,1000,CC(=O)N1c2ccc(-c3ccc(C#N)cc3)cc2[C@H](Nc2ccccc2)C[C@@H]1C (racemic),7,solubility at 16 h [3]: 57 µg/mL
631,501,631,COc1ccccc1N[C@@H]1C[C@H](C)N(C(C)=O)c2ccc(-c3ccc(C(=O)O)cc3)cc21 (racemic),7.6,–
2510,1580,6310,COc1ccc(-c2ccc3c(c2)[C@H](Nc2ccccc2)CCN3C(C)=O)cc1 (racemic),6.1,–
794,1000,1580,COC(=O)c1ccc(-c2ccc3c(c2)[C@H](Nc2ccc(F)cc2)C[C@H](C)N3C(C)=O)cc1 (racemic),7.3,–
794,398,1260,CC(=O)N1c2ccc(-c3cccc(CN4CCCCC4)c3)cc2[C@H](Nc2ccccc2)C[C@@H]1C (racemic),7.1,solubility at 16 h [3]: 99 µg/mL
1000,1260,2000,CC(=O)N1c2ccc(-c3ccc(C(F)(F)F)cc3)cc2[C@H](Nc2ccccc2)C[C@@H]1C (racemic),6.2,–
25100,25100,50100,CC(=O)N1c2ccc(-c3ccc(CN4CCCCC4)cc3)cc2[C@H](N)C[C@@H]1C (racemic),<5,–
1000,1000,2000,COC(=O)c1cccc(-c2ccc3c(c2)[C@H](Nc2ccc(Cl)cc2)C[C@H](C)N3C(C)=O)c1 (racemic),7.2,–
501,398,794,CC(=O)N1c2ccc(-c3ccc(C(N)=O)cc3)cc2[C@H](Nc2ccc(Cl)cc2)C[C@@H]1C (racemic),7.8,–
501,398,631,CC(=O)N1c2ccc(-c3ccc(C(=O)O)cc3)cc2[C@H](Nc2ccccc2)C[C@@H]1C (racemic),7.3,solubility at 16 h [3]: 118 µg/mL
–,–,–,CC(=O)N1c2ccccc2[C@H](Nc2ccccc2)C[C@@H]1C (racemic),–,fold change (FC) (HepG2 [15]): 1.7
251,158,200,CC(=O)N1c2ccc(-c3ccc(C(=O)O)cc3)cc2[C@H](Nc2ccc(C)cc2)C[C@@H]1C,8,–
316,316,1000,CC(=O)N1c2ccc(-c3ccc(C(=O)O)cc3)cc2[C@H](Nc2ccc(S(C)(=O)=O)cc2)C[C@@H]1C (racemic),5.4,–
1000,794,1580,COc1cccc(N[C@@H]2C[C@H](C)N(C(C)=O)c3ccc(-c4ccc(C#N)cc4)cc32)c1 (racemic),6.7,–
6310,6310,15800,CC(=O)N1c2ccc(-c3ccc(CN4CCCCC4)cc3)cc2[C@H](NC=O)C[C@@H]1C (racemic),5.3,–

Structure (SMILES),IC50 [1] [nM],IC50 [8] [nM],IC50 [9] [nM],pEC170 (HepG2 [5]),also measured
CC(=O)N1c2ccc(-c3ccc(C(=O)O)cc3)cc2[C@H](Nc2ccc(Cl)cc2)C[C@@H]1C (racemic),–,398,398,7.8,–
